For assay [1], the target named is memapsin 2 (Homo sapiens, UniProt P56817). The assay is described as follows: Inhibition of memapsin 2 beta-secretase activity (fluorogenic substrate FS-2). Particulars: memapsin 2, pH 4, 37° C., read-out: M2Ki. The assay is classed as biochemical. The procedure, abridged: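 Memapsin 2 pre-incubated 20 min with compound at pH 4, 37° C, then FS-2 substrate (MCA-SEVNLDAEFK-DNP, APP Swedish cleavage site) added. Rate of fluorescence increase compared with uninhibited controls, fitted to a tight-binding inhibition model.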
Chain of memapsin 2 (P56817 46-501): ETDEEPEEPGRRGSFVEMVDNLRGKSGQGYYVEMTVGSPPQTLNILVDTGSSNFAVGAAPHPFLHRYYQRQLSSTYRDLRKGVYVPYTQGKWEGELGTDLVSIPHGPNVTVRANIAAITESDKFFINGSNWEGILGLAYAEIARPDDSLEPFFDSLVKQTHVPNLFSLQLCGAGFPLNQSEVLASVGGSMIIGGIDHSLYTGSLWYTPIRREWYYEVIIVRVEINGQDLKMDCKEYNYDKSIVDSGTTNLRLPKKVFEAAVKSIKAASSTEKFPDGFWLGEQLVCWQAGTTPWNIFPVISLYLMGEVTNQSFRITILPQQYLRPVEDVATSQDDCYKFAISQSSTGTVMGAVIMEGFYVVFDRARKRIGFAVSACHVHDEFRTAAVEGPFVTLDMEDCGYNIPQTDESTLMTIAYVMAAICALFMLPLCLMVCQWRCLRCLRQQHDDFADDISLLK

The test system of assay [2] is Aβ production in Chinese hamster ovary cells that over-express human APP695 with the London and Swedish mutations. The experiment in a line: Cellular Aβ IC50 determination (Aβ40 sandwich ELISA). It is filed as cell-based. Particulars: Cricetulus griseus; cellular Aβ production; read-out: IC50. The essentials: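 CHO cells overexpressing human APP695 with London and Swedish mutations, seeded at 10% confluency, treated with compounds up to about 4 μM final (0.4% DMSO). Secreted Aβ40 measured by sandwich ELISA relative to control and fitted to a 4-parameter IC50 model.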
(In general: ELISA stands for enzyme-linked immunosorbent assay.)

Like-named read-outs stand apart in the source and are kept apart here.

As for `CC(=O)c1cccc(CNC[C@@H](O)[C@H](Cc2ccccc2)NC(=O)c2cccc(C(=O)N(C)Cc3nc(C)cs3)c2)c1` [Compound 124, N1-((2S,3R)-4-(3-acetylbenzylamino)-3-hydroxy-1-phenylbutan-2-yl)-N3-methyl-N3-((4-methylthiazol-2-yl)methyl)isophthalamide], the Ki in assay [1] (20 minutes pre-incubation) is under 0.3 µM. In addition, the IC50 (usually the concentration needed to halve the response being measured) in assay [2] is under 1 µM.

In the case of `Cc1csc(CN(C)C(=O)c2cc(C(=O)N[C@@H](Cc3ccccc3)[C@H](O)CNCc3cncc(C(C)C)c3)cc(-c3nccn3C)c2)n1` [Compound 271, N1-((2S,3R)-3-hydroxy-4-((5-isopropylpyridin-3-yl)methylamino)-1-phenylbutan-2-yl)-N3-methyl-5-(1-methyl-1H-imidazol-2-yl)-N3-((4-methylthiazol-2-yl)methyl)isophthalamide], the Ki in assay [1] (fluorogenic substrate FS-2) was under 0.3 µM. Moreover, in assay [2], the IC50 was under 1 µM.

As to `Cc1csc(CN(C)C(=O)c2cccc(C(=O)N[C@@H](Cc3ccccc3)[C@H](O)CNCc3cccc(C(C)Cl)c3)c2)n1` (stereo partly drawn) [Compound 173, N1-((2S,3R)-4-(3-(1-chloroethyl)benzylamino)-3-hydroxy-1-phenylbutan-2-yl)-N3-methyl-N3-((4-methylthiazol-2-yl)methyl)isophthalamide], the Ki in assay [1] (20 minutes pre-incubation) was under 0.3 µM. In assay [2], the IC50 was under 1 µM.

In the case of `Cc1csc(CN(C)C(=O)c2cccc(C(=O)N[C@@H](Cc3ccccc3)[C@H](O)CNCc3cncc(C(C)(C)F)c3)c2)n1` [Compound 92, N1-((2S,3R)-4-((5-(2-fluoropropan-2-yl)pyridin-3-yl)methylamino)-3-hydroxy-1-phenylbutan-2-yl)-N3-methyl-N3-((4-methylthiazol-2-yl)methyl)isophthalamide], the Ki in assay [1] (20 minutes pre-incubation) was under 0.3 µM. In addition, in assay [2], the IC50 is under 1 µM.

Turning to `Cc1csc(CN(C)C(=O)c2cc(C(=O)N[C@@H](Cc3ccccc3)[C@H](O)CNCc3cccc(C(F)(F)F)c3)cc(C(C)C)c2)n1` [Compound 273, N1-((2S,3R)-3-hydroxy-1-phenyl-4-(3-(trifluoromethyl)benzylamino)butan-2-yl)-5-isopropyl-N3-methyl-N3-((4-methylthiazol-2-yl)methyl)isophthalamide], in assay [1] (fluorogenic substrate FS-2), the Ki was under 0.3 µM. The IC50 in assay [2] was under 1 µM.

With `C[C@@H](NC(=O)c1cc(C(=O)N[C@@H](Cc2ccccc2)[C@H](O)CNCc2cccc(C#N)c2)cc(N(C)S(C)(=O)=O)c1)c1ccccc1` [Compound 149, N1-((2S,3R)-4-(3-cyanobenzylamino)-3-hydroxy-1-phenylbutan-2-yl)-5-(N-methylmethylsulfonamido)-N3-((R)-1-phenylethyl)isophthalamide], in assay [1] (20 minutes pre-incubation), the Ki is under 0.3 µM. In addition, the IC50 in assay [2] was under 1 µM.

As for `Cc1csc(CN(C)C(=O)c2cccc(C(=O)N[C@@H](Cc3ccccc3)[C@H](O)CNCc3cc(F)cc(C(F)(F)F)c3)c2)n1` [Compound 28, N1-((2S,3R)-4-(3-fluoro-5-(trifluoromethyl)benzylamino)-3-hydroxy-1-phenylbutan-2-yl)-N3-methyl-N3-((4-methylthiazol-2-yl)methyl)isophthalamide], the Ki in assay [1] (20 minutes pre-incubation) is under 0.3 µM. The IC50 in assay [2] was under 1 µM.

For the compound `COC(=O)c1cc(CNC[C@@H](O)[C@H](Cc2ccccc2)NC(=O)c2cccc(C(=O)N(C)Cc3nc(C)cs3)c2)cc(N(C)S(C)(=O)=O)c1` [Compound 134, methyl 3-(((2R,3S)-2-hydroxy-3-(3-(methyl((4-methylthiazol-2-yl)methyl)carbamoyl)benzamido)-4-phenylbutylamino)methyl)-5-(N-methylmethylsulfonamido)benzoate], in assay [1] (20 minutes pre-incubation), the Ki is under 0.3 µM. The IC50 in assay [2] is 1 to 5 µM.

On to `CCS(=O)(=O)c1cc(CNC[C@@H](O)[C@H](Cc2ccccc2)NC(=O)c2cccc(C(=O)N(C)Cc3nc(C)cs3)c2)cc(C(C)C)c1` [Compound 188, N1-((2S,3R)-4-(3-(ethylsulfonyl)-5-isopropylbenzylamino)-3-hydroxy-1-phenylbutan-2-yl)-N3-methyl-N3-((4-methylthiazol-2-yl)methyl)isophthalamide], for which the Ki in assay [1] (20 minutes pre-incubation) is under 0.3 µM. For the same compound, the IC50 in assay [2] was under 1 µM.

In the case of `COc1cccc(CNC[C@@H](O)[C@H](Cc2ccccc2)NC(=O)c2cc(NO)cc(C(=O)N(C)Cc3nc(C)cs3)c2)c1` [Compound 117, N1-((2S,3R)-3-hydroxy-4-(3-methoxybenzylamino)-1-phenylbutan-2-yl)-5-(hydroxyamino)-N3-methyl-N3-((4-methylthiazol-2-yl)methyl)isophthalamide], the Ki in assay [1] (20 minutes pre-incubation) is under 0.3 µM. Moreover, in assay [2], the IC50 was under 1 µM.

With `COc1cccc(CNC[C@@H](O)[C@H](Cc2ccccc2)NC(=O)c2cc(C(=O)NCc3nc(C)cs3)cc(N3CCCC3)c2)c1` [Compound 187, N1-((2S,3R)-3-hydroxy-4-(3-methoxybenzylamino)-1-phenylbutan-2-yl)-N3-((4-methylthiazol-2-yl)methyl)-5-(pyrrolidin-1-yl)isophthalamide], the Ki in assay [1] (20 minutes pre-incubation) is under 0.3 µM. Also, the IC50 in assay [2] was over 5 µM.

In the case of `C=C(C)c1cc(CNC[C@@H](O)[C@H](Cc2ccccc2)NC(=O)c2cccc(C(=O)N(C)Cc3nc(C)cs3)c2)c[n+]([O-])c1` [Compound 269, 3-(((2R,3S)-2-hydroxy-3-(3-(methyl((4-methylthiazol-2-yl)methyl)carbamoyl)benzamido)-4-phenylbutylamino)methyl)-5-(prop-1-en-2-yl)pyridine 1-oxide], the Ki in assay [1] (fluorogenic substrate FS-2) was under 0.3 µM. Besides, the IC50 in assay [2] was under 1 µM.

For the compound `Cc1csc(CN(C)C(=O)c2cccc(C(=O)N[C@@H](Cc3ccccc3)[C@H](O)CNCc3cc(Cl)ccc3F)c2)n1` [Compound 261, N1-((2S,3R)-4-(5-chloro-2-fluorobenzylamino)-3-hydroxy-1-phenylbutan-2-yl)-N3-methyl-N3-((4-methylthiazol-2-yl)methyl)isophthalamide], the Ki in assay [1] (fluorogenic substrate FS-2) is under 0.3 µM. Further, the IC50 in assay [2] is under 1 µM.

`C[C@@H](NC(=O)c1cc(C(=O)N[C@@H](Cc2ccccc2)[C@H](O)CNCc2cccc(CO)c2)cc(N(C)S(C)(=O)=O)c1)c1ccccc1` [Compound 107, N1-((2S,3R)-3-hydroxy-4-(3-(hydroxymethyl)benzylamino)-1-phenylbutan-2-yl)-5-(N-methylmethylsulfonamido)-N3-((R)-1-phenylethyl)isophthalamide]: the Ki in assay [1] (20 minutes pre-incubation) is under 0.3 µM. In addition, the IC50 in assay [2] is under 1 µM.

With `Cc1csc(CN(C)C(=O)c2cc(OS(C)(=O)=O)cc(C(=O)N[C@@H](Cc3ccccc3)[C@H](O)CNCc3cncc(C(C)C)c3)c2)n1` [Compound 100, 3-((2S,3R)-3-hydroxy-4-((5-isopropylpyridin-3-yl)methylamino)-1-phenylbutan-2-ylcarbamoyl)-5-(methyl((4-methylthiazol-2-yl)methyl)carbamoyl)phenyl methanesulfonate], the Ki in assay [1] (20 minutes pre-incubation) was under 0.3 µM. Further, the IC50 in assay [2] was under 1 µM.

Turning to `Cc1csc(CN(C)C(=O)c2cc(C(=O)N[C@@H](Cc3ccccc3)[C@H](O)CNCc3cncc(C(C)C)c3)cc(N(C)C)c2)n1` [Compound 162, 5-(dimethylamino)-N1-((2S,3R)-3-hydroxy-4-((5-isopropylpyridin-3-yl)methylamino)-1-phenylbutan-2-yl)-N3-methyl-N3-((4-methylthiazol-2-yl)methyl)isophthalamide], the Ki in assay [1] (20 minutes pre-incubation) was under 0.3 µM. Further, the IC50 in assay [2] was under 1 µM.

On to `Cc1csc(CN(C)C(=O)c2cccc(C(=O)N[C@@H](Cc3cscn3)[C@H](O)CNCc3cncc(C(C)C)c3)c2)n1` [Compound 183, N1-((2S,3R)-3-hydroxy-4-((5-isopropylpyridin-3-yl)methylamino)-1-(thiazol-4-yl)butan-2-yl)-N3-methyl-N3-((4-methylthiazol-2-yl)methyl)isophthalamide], for which the Ki in assay [1] (20 minutes pre-incubation) lay within 0.301 to 0.5 µM. Moreover, the IC50 in assay [2] was in the range of 1 to 5 µM.

With `Cc1csc(CN(C)C(=O)c2cccc(C(=O)N[C@@H](Cc3ccccc3)[C@H](O)CNCc3ccccn3)c2)n1` [Compound 64, N1-((2S,3R)-3-hydroxy-1-phenyl-4-(pyridin-2-ylmethylamino)butan-2-yl)-N3-methyl-N3-((4-methylthiazol-2-yl)methyl)isophthalamide], the Ki in assay [1] (20 minutes pre-incubation) was over 0.501 µM. In assay [2], the IC50 was 1 to 5 µM.

Turning to `Cc1csc(CN(C)C(=O)c2cc(C(=O)N[C@@H](Cc3ccccc3)[C@H](O)CNCc3cccc(C(F)(F)F)c3)cc(-c3cnccn3)c2)n1` [Compound 222, N1-((2S,3R)-3-hydroxy-1-phenyl-4-(3-(trifluoromethyl)benzylamino)butan-2-yl)-N3-methyl-N3-((4-methylthiazol-2-yl)methyl)-5-(pyrazin-2-yl)isophthalamide], the Ki in assay [1] (fluorogenic substrate FS-2) was under 0.3 µM. In addition, the 50% inhibitory concentration (IC50) in assay [2] is under 1 µM.

Consider `Cc1csc(CN(C)C(=O)c2cc(C(=O)N[C@@H](Cc3ccccc3)[C@H](O)CNCc3cncc(C(C)(C)F)c3)cc(-n3cccc3)c2)n1` [Compound 250, N1-((2S,3R)-4-((5-(2-fluoropropan-2-yl)pyridin-3-yl)methylamino)-3-hydroxy-1-phenylbutan-2-yl)-N3-methyl-N3-((4-methylthiazol-2-yl)methyl)-5-(1H-pyrrol-1-yl)isophthalamide], for which the Ki in assay [1] (fluorogenic substrate FS-2) was under 0.3 µM. Moreover, in assay [2], the IC50 was under 1 µM.

With `COc1cccc(CNC[C@@H](O)[C@H](Cc2ccccc2)NC(=O)c2cc(C(=O)N(C)Cc3nc(C)cs3)cc(N3CCCC3)c2)c1` [Compound 179, N1-((2S,3R)-3-hydroxy-4-(3-methoxybenzylamino)-1-phenylbutan-2-yl)-N3-methyl-N3-((4-methylthiazol-2-yl)methyl)-5-(pyrrolidin-1-yl)isophthalamide], in assay [1] (20 minutes pre-incubation), the Ki is under 0.3 µM. Further, in assay [2], the IC50 was under 1 µM.

(Values after US20100286145A1, “ISOPHTHALAMIDE DERIVATIVES INHIBITING BETA-SECRETASE ACTIVITY” (CoMentis, Inc., priority 2007, published 2010).)
